In general, IC50 refers to the point on the concentration scale where inhibition reaches its midpoint.

The first experiment has as its target T1, NTCP (Homo sapiens, UniProt Q14973).
T1 sequence (Q14973 1-349): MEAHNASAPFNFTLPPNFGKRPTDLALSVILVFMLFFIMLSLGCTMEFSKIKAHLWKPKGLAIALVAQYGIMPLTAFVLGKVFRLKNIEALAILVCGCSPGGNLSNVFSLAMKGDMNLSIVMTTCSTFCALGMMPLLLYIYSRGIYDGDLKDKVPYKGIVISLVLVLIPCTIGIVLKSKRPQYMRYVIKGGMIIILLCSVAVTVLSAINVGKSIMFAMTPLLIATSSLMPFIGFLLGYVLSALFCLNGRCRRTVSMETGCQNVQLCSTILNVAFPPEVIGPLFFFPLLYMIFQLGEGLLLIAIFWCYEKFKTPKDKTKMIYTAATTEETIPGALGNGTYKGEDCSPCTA
Put plainly: [3H]-TCA uptake assay (NTCP inhibition). It is filed as cell-based. As to conditions: IC50, given as a range, marked * (asterisk not explained). The procedure: [^3H]-TCA uptake assay. PTH and HepG2-NTCP cells were cultured in PMM for 24 hours to induce NTCP expression. After treated by DMSO or test compounds for 2 hours, the cells were then incubated with 1 μM [^3H]-taurocholate acid dissolved in Na^+ Ringer's buffer (the concentration of Na was 145 mM) for 15 minutes at 37° C. Subsequently, the cells were washed once in phosphate-buffered saline (PBS) and lysed in 50 μL 1% TritonX-100 in H2O for 5 minutes at room temperature. The lysate were totally transferred into a liquid scintillation 96 well plate and mixed with 200 μL liquid scintillation cocktail (Ultima Gold XR, PerkinElmer). Liquid scintillation counting was performed on a PerkinElmer 1450 LSC liquid scintillation counter.
For the molecule `CCC1NC(=O)C(C2OC(Sc3cccc(OCCN(C)C)c3)CC2C)N(C)C(=O)C(C(C)C)N(C)C(=O)C(CC(C)C)N(C)C(=O)C(CC(C)C)N(C)C(=O)C(C)NC(=O)C(C)NC(=O)C(CC(C)C)N(C)C(=O)C(C(C)C)NC(=O)C(CC(C)C)N(C)C(=O)CN(C)C1=O` [Compound 14A, [2-((2R,3R)-5-(3-(2-(dimethylamino)ethoxy)phenylthio)-3-methyltetrahydrofuran-2-yl)-2-(methylamino)acetic acid]^1-cyclosporin A], the IC50 is 1 to 100 µM.

`CCC1NC(=O)C(C2OC(Oc3cccc(OCCN(C)C)c3)CC2C)N(C)C(=O)C(C(C)C)N(C)C(=O)C(CC(C)C)N(C)C(=O)C(CC(C)C)N(C)C(=O)C(C)NC(=O)C(C)NC(=O)C(CC(C)C)N(C)C(=O)C(C(C)C)NC(=O)C(CC(C)C)N(C)C(=O)CN(C)C1=O` (centres unmarked) [Compound 14A-o] came in with a half-maximal inhibitory concentration (IC50) of 1 to 100 µM.

On to `CCC1NC(=O)C(C2OC(Oc3cccc(OCc4ccccc4F)c3)CC2C)N(C)C(=O)C(C(C)C)N(C)C(=O)C(CC(C)C)N(C)C(=O)C(CC(C)C)N(C)C(=O)C(C)NC(=O)C(C)NC(=O)C(CC(C)C)N(C)C(=O)C(C(C)C)NC(=O)C(CC(C)C)N(C)C(=O)CN(C)C1=O` (centres unmarked) [Compound 19A-o], for which the IC50 lay within 1 to 100 µM.

The molecule `CCC1NC(=O)C(C2OC(Oc3cccc(OCc4cccc(F)c4)c3)CC2C)N(C)C(=O)C(C(C)C)N(C)C(=O)C(CC(C)C)N(C)C(=O)C(CC(C)C)N(C)C(=O)C(C)NC(=O)C(C)NC(=O)C(CC(C)C)N(C)C(=O)C(C(C)C)NC(=O)C(CC(C)C)N(C)C(=O)CN(C)C1=O` (centres unmarked) [Compound 20A-o] yielded an IC50 of 1 to 100 µM.

On to `CCC1NC(=O)C(C2OC(Oc3cccc(OCc4ccc(F)cc4)c3)CC2C)N(C)C(=O)C(C(C)C)N(C)C(=O)C(CC(C)C)N(C)C(=O)C(CC(C)C)N(C)C(=O)C(C)NC(=O)C(C)NC(=O)C(CC(C)C)N(C)C(=O)C(C(C)C)NC(=O)C(CC(C)C)N(C)C(=O)CN(C)C1=O` (centres unmarked) [Compound 21A-o], for which the IC50 fell in the range of 1 to 100 µM.

Staying with this experiment, now noted: IC50, given as a range; assay not given.
In turn, `CCC1NC(=O)C(C2OC(Sc3cccc(OCCC4CCCN4C)c3)CC2C)N(C)C(=O)C(C(C)C)N(C)C(=O)C(CC(C)C)N(C)C(=O)C(CC(C)C)N(C)C(=O)C(C)NC(=O)C(C)NC(=O)C(CC(C)C)N(C)C(=O)C(C(C)C)NC(=O)C(CC(C)C)N(C)C(=O)CN(C)C1=O` [Compound 15A, [2-((2R,3R)-3-methyl-5-(3-(2-(1-methylpyrrolidin-2-yl)ethoxy)phenylthio)tetrahydrofuran-2-yl)-2-(methylamino)acetic acid]^1-cyclosporin A] returned a 50% inhibitory concentration (IC50) of 1 to 10 µM.

Still in this experiment, the particulars now being: given as a range, marked * (asterisk not explained).
Molecule `CCC1NC(=O)C(C2OC(Oc3cccc(OCc4ccc(CN(C)C)cc4)c3)CC2C)N(C)C(=O)C(C(C)C)N(C)C(=O)C(CC(C)C)N(C)C(=O)C(CC(C)C)N(C)C(=O)C(C)NC(=O)C(C)NC(=O)C(CC(C)C)N(C)C(=O)C(C(C)C)NC(=O)C(CC(C)C)N(C)C(=O)CN(C)C1=O` (centres unmarked) [Compound 13A-o] displayed an IC50 of 1 to 100 µM.

`CCC1NC(=O)C(C2OC(Oc3cccc(OCc4ccn(C)c(=O)c4)c3)CC2C)N(C)C(=O)C(C(C)C)N(C)C(=O)C(CC(C)C)N(C)C(=O)C(CC(C)C)N(C)C(=O)C(C)NC(=O)C(C)NC(=O)C(CC(C)C)N(C)C(=O)C(C(C)C)NC(=O)C(CC(C)C)N(C)C(=O)CN(C)C1=O` (centres unmarked) [Compound 16A-o] yielded an IC50 of 1 to 100 µM.

In turn, `CCC1NC(=O)C(C2OC(Oc3cccc(OCc4ccc(-n5cccn5)cc4)c3)CC2C)N(C)C(=O)C(C(C)C)N(C)C(=O)C(CC(C)C)N(C)C(=O)C(CC(C)C)N(C)C(=O)C(C)NC(=O)C(C)NC(=O)C(CC(C)C)N(C)C(=O)C(C(C)C)NC(=O)C(CC(C)C)N(C)C(=O)CN(C)C1=O` (centres unmarked) [Compound 17A-o] yielded a half-maximal inhibitory concentration (IC50) of 1 to 100 µM.

Regarding `CCC1NC(=O)C(C2OC(Oc3cccc(OCc4ccc5c(c4)OCO5)c3)CC2C)N(C)C(=O)C(C(C)C)N(C)C(=O)C(CC(C)C)N(C)C(=O)C(CC(C)C)N(C)C(=O)C(C)NC(=O)C(C)NC(=O)C(CC(C)C)N(C)C(=O)C(C(C)C)NC(=O)C(CC(C)C)N(C)C(=O)CN(C)C1=O` (centres unmarked) [Compound 18A-o], the IC50 lay within 1 to 100 µM.

Molecule `CCC1NC(=O)C(C2OC(Oc3cccc(OCc4ccc(F)c(Cl)c4)c3)CC2C)N(C)C(=O)C(C(C)C)N(C)C(=O)C(CC(C)C)N(C)C(=O)C(CC(C)C)N(C)C(=O)C(C)NC(=O)C(C)NC(=O)C(CC(C)C)N(C)C(=O)C(C(C)C)NC(=O)C(CC(C)C)N(C)C(=O)CN(C)C1=O` (centres unmarked) [Compound 22A-o] displayed an IC50 of 1 to 100 µM.

Consider `CCC1NC(=O)C(C2OC(Oc3cccc(OCc4ccc(F)cc4Cl)c3)CC2C)N(C)C(=O)C(C(C)C)N(C)C(=O)C(CC(C)C)N(C)C(=O)C(CC(C)C)N(C)C(=O)C(C)NC(=O)C(C)NC(=O)C(CC(C)C)N(C)C(=O)C(C(C)C)NC(=O)C(CC(C)C)N(C)C(=O)CN(C)C1=O` (centres unmarked) [Compound 23A-o], for which the IC50 fell in the range of 1 to 100 µM.

The same experiment, now with this note: given as a range; assay not given.
`CCC1NC(=O)C(C2OC(Sc3cccc(OCc4ccn(C)c(=O)c4)c3)CC2C)N(C)C(=O)C(C(C)C)N(C)C(=O)C(CC(C)C)N(C)C(=O)C(CC(C)C)N(C)C(=O)C(C)NC(=O)C(C)NC(=O)C(CC(C)C)N(C)C(=O)C(C(C)C)NC(=O)C(CC(C)C)N(C)C(=O)CN(C)C1=O` [Compound 16A, [2-((2R,3R)-3-methyl-5-(3-((1-methyl-2-oxo-1,2-dihydropyridin-4-yl)methoxy)phenylthio)tetrahydrofuran-2-yl)-2-(methylamino)acetic acid]^1-cyclosporin A] registered an IC50 of 1 to 10 µM.

`CCC1NC(=O)C(C2OC(Sc3cccc(OCc4ccc5c(c4)OCO5)c3)CC2C)N(C)C(=O)C(C(C)C)N(C)C(=O)C(CC(C)C)N(C)C(=O)C(CC(C)C)N(C)C(=O)C(C)NC(=O)C(C)NC(=O)C(CC(C)C)N(C)C(=O)C(C(C)C)NC(=O)C(CC(C)C)N(C)C(=O)CN(C)C1=O` [Compound 18A, [2-((2R,3R)-5-(3-(benzo[d][1,3]dioxol-5-ylmethoxy)phenylthio)-3-methyltetrahydrofuran-2-yl)-2-(methylamino)acetic acid]^1-cyclosporin A] gave an IC50 of 0.001 to 1 µM.

`CCC1NC(=O)C(C2OC(Sc3cccc(OCc4ccccc4F)c3)CC2C)N(C)C(=O)C(C(C)C)N(C)C(=O)C(CC(C)C)N(C)C(=O)C(CC(C)C)N(C)C(=O)C(C)NC(=O)C(C)NC(=O)C(CC(C)C)N(C)C(=O)C(C(C)C)NC(=O)C(CC(C)C)N(C)C(=O)CN(C)C1=O` [Compound 19A, [2-((2R,3R)-5-(3-(2-fluorobenzyloxy)phenylthio)-3-methyltetrahydrofuran-2-yl)-2-(methylamino)acetic acid]^1-cyclosporin A]: the IC50 lay within 0.001 to 1 µM.

Consider `CCC1NC(=O)C(C2OC(Sc3cccc(OCc4cccc(F)c4)c3)CC2C)N(C)C(=O)C(C(C)C)N(C)C(=O)C(CC(C)C)N(C)C(=O)C(CC(C)C)N(C)C(=O)C(C)NC(=O)C(C)NC(=O)C(CC(C)C)N(C)C(=O)C(C(C)C)NC(=O)C(CC(C)C)N(C)C(=O)CN(C)C1=O` [Compound 20A, [2-((2R,3R)-5-(3-(3-fluorobenzyloxy)phenylthio)-3-methyltetrahydrofuran-2-yl)-2-(methylamino)acetic acid]^1-cyclosporin A], for which the IC50 was 0.001 to 1 µM.

With `CCC1NC(=O)C(C2OC(Sc3cccc(OCc4ccc(F)cc4)c3)CC2C)N(C)C(=O)C(C(C)C)N(C)C(=O)C(CC(C)C)N(C)C(=O)C(CC(C)C)N(C)C(=O)C(C)NC(=O)C(C)NC(=O)C(CC(C)C)N(C)C(=O)C(C(C)C)NC(=O)C(CC(C)C)N(C)C(=O)CN(C)C1=O` [Compound 21A, [2-((2R,3R)-5-(3-(4-fluorobenzyloxy)phenylthio)-3-methyltetrahydrofuran-2-yl)-2-(methylamino)acetic acid]^1-cyclosporin A], the IC50 lay in the range of 0.001 to 1 µM.

In turn, `CCC1NC(=O)C(C2OC(Sc3cccc(OCc4ccc(F)c(Cl)c4)c3)CC2C)N(C)C(=O)C(C(C)C)N(C)C(=O)C(CC(C)C)N(C)C(=O)C(CC(C)C)N(C)C(=O)C(C)NC(=O)C(C)NC(=O)C(CC(C)C)N(C)C(=O)C(C(C)C)NC(=O)C(CC(C)C)N(C)C(=O)CN(C)C1=O` [Compound 22A, [2-((2R,3R)-5-(3-(3-chloro-4-fluorobenzyloxy)phenylthio)-3-methyltetrahydrofuran-2-yl)-2-(methylamino)acetic acid]^1-cyclosporin A] displayed an IC50 of 0.001 to 1 µM.

The experiment is the same for the next values; noted with them: given as a range; assay not given; read-out: IC50.
Turning to `CC[C@@H]1NC(=O)[C@H]([C@@H]2OC(Sc3cccc(OCc4ccc(-n5cccn5)cc4)c3)C[C@H]2C)N(C)C(=O)[C@H](C(C)C)N(C)C(=O)[C@H](CC(C)C)N(C)C(=O)[C@H](CC(C)C)N(C)C(=O)[C@@H](C)NC(=O)[C@H](C)NC(=O)[C@H](CC(C)C)N(C)C(=O)[C@H](C(C)C)NC(=O)[C@H](CC(C)C)N(C)C(=O)CN(C)C1=O` (stereo partly drawn) [Compound 17A, [2-((2R,3R)-5-(3-(4-(1H-pyrazol-1-yl)benzyloxy)phenylthio)-3-methyltetrahydrofuran-2-yl)-2-(methylamino)acetic acid]^1-cyclosporin A], the IC50 lay in the range of 0.001 to 1 µM.

Turning to `CC[C@@H]1NC(=O)[C@H]([C@@H]2OC(Sc3cccc(OCc4ccc(F)cc4Cl)c3)C[C@H]2C)N(C)C(=O)[C@H](C(C)C)N(C)C(=O)[C@H](CC(C)C)N(C)C(=O)[C@H](CC(C)C)N(C)C(=O)[C@@H](C)NC(=O)[C@H](C)NC(=O)[C@H](CC(C)C)N(C)C(=O)[C@H](C(C)C)NC(=O)[C@H](CC(C)C)N(C)C(=O)CN(C)C1=O` (stereo partly drawn) [Compound 23A, [2-((2R,3R)-5-(3-(2-chloro-4-fluorobenzyloxy)phenylthio)-3-methyltetrahydrofuran-2-yl)-2-(methylamino)acetic acid]^1-cyclosporin A], the IC50 is 0.001 to 1 µM.

The record behind these values is patent publication US10961231B2, “NTCP inhibitors” (National Institute of Biological Sciences, Beijing, priority 2018, dated 2021).
